# Experimental data reported in ChEMBL document CHEMBL5724696, “Autophagy assay results for EUbOPEN Chemogenomics Library” (2024).
# “And” between values parts separate entries of the source, which are not always exact repeats. Equal values may be shown once.
# Assays:
# Assay type in all cases: functional, Homo sapiens
# U2OS [1] = test: (§1) Here: values are normalized to the negative (DMSO; defined as 0% autophagy induction) and positive (250nM Torin1; mTOR inhibitor; defined as maximal inducer of autophagy = 100%) control compounds and represented as % of autophagy induction. […] The impact of autophagy induction on cells is complex and depends on the affected target. As such, the magnitude of a phenotype may not be equally mirrored in the %-value of autophagy induction and vice versa. The dynamics of the induction may indicate the mode of activation: e.g. activation via phosphorylation or a signaling cascade may occur fast, while activation via transcription factors may take considerably longer. […] Of note, treatment concentrations may be sub-optimal for specific compounds, leading to false negative annotations.; settings: Culturing Media DMEM, 1 % Penicillin/Streptomycin, 10% Fetal bovin serum Add-On: No, Screening Media Control DMEM, Screening Media Samples DMEM
# TERT-RPE1 = test: as §1; settings: Culturing Media DMEM/F12 (1:1), 1 % Penicillin/Streptomycin, 10% Fetal bovin serum Add-On: No, Screening Media Control DMEM/F12 (1:1), Screening Media Samples DMEM/F12 (1:1)
# U2OS [2] = test: as §1; settings: Culturing Media DMEM, 1 % Penicillin/Streptomycin, 10% Fetal bovin serum Add-On: No, Screening Media Control DMEM, Screening Media Samples DMEM; remark: listed apart in the source
# [3] = Compound Concentration 0.5 uM, Timepoint 12 hours
# [4] = Compound Concentration 0.5 uM, Timepoint 24 hours
# [5] = Compound Concentration 0.5 uM, Timepoint 36 hours
# [6] = Compound Concentration 0.5 uM, Timepoint 60 hours
# [7] = Compound Concentration 2 uM, Timepoint 12 hours
# [8] = Compound Concentration 2 uM, Timepoint 24 hours
# [9] = Compound Concentration 2 uM, Timepoint 36 hours
# [10] = Compound Concentration 2 uM, Timepoint 60 hours
# [11] = Compound Concentration 10 uM, Timepoint 12 hours
# [12] = Compound Concentration 10 uM, Timepoint 24 hours
# [13] = Compound Concentration 10 uM, Timepoint 36 hours
# [14] = Compound Concentration 10 uM, Timepoint 60 hours
Compound,autophagy induction (U2OS [1]; [3]),autophagy induction (U2OS [1]; [4]),autophagy induction (U2OS [1]; [5]),autophagy induction (U2OS [1]; [6]),autophagy induction (U2OS [1]; [7]),autophagy induction (U2OS [1]; [8]),autophagy induction (U2OS [1]; [9]),autophagy induction (U2OS [1]; [10]),autophagy induction (U2OS [1]; [11]),autophagy induction (U2OS [1]; [12]),autophagy induction (U2OS [1]; [13]),autophagy induction (U2OS [1]; [14]),autophagy induction (U2OS [2]; [3]),autophagy induction (U2OS [2]; [4]),autophagy induction (U2OS [2]; [5]),autophagy induction (U2OS [2]; [6]),autophagy induction (U2OS [2]; [7]),autophagy induction (U2OS [2]; [8]),autophagy induction (U2OS [2]; [9]),autophagy induction (U2OS [2]; [10]),other results
CCCSc1nc(N[C@@H]2C[C@H]2c2ccc(F)c(F)c2)c2nnn([C@@H]3C[C@H](OCCO)[C@@H](O)[C@H]3O)c2n1 [TICAGRELOR],-3.602%,-3.07%,-60.4394%,-2.316%,-5.583%,-3.174%,-60.5106%,-3.163%,-2.648%,1.759%,-58.5177%,-2.994%,-9.844%,-12.5107%,-15.2375%,-18.2861%,2.324%,-7.302%,-3.06%,-7.4162%,"autophagy induction (TERT-RPE1; Compound Concentration 0.5 uM, Timepoint 12 hours, 12 h, 0.5 µM): -0.3223% and -0.8015%; autophagy induction (TERT-RPE1; Compound Concentration 0.5 uM, Timepoint 24 hours, 24 h, 0.5 µM): 2.932% and -1.64%; autophagy induction (TERT-RPE1; Compound Concentration 0.5 uM, Timepoint 36 hours, 36 h, 0.5 µM): 3.182% and -0.1292%; autophagy induction (TERT-RPE1; Compound Concentration 0.5 uM, Timepoint 60 hours, 60 h, 0.5 µM): 6.614% and -2.465%; autophagy induction (TERT-RPE1; Compound Concentration 2 uM, Timepoint 12 hours, 12 h, 2 µM): -2.164% and 3.738%; autophagy induction (TERT-RPE1; Compound Concentration 2 uM, Timepoint 24 hours, 24 h, 2 µM): 2.13% and 2.219%; autophagy induction (TERT-RPE1; Compound Concentration 2 uM, Timepoint 36 hours, 36 h, 2 µM): 3.83% and 3.863%; autophagy induction (TERT-RPE1; Compound Concentration 2 uM, Timepoint 60 hours, 60 h, 2 µM): 10.3636% and 4.688%; autophagy induction (TERT-RPE1; Compound Concentration 10 uM, Timepoint 12 hours, 12 h, 10 µM): 2.799% and 5.117%; autophagy induction (TERT-RPE1; Compound Concentration 10 uM, Timepoint 24 hours, 24 h, 10 µM): 8.7588% and 7.492%; autophagy induction (TERT-RPE1; Compound Concentration 10 uM, Timepoint 36 hours, 36 h, 10 µM): 16.5266% and 7.688%; autophagy induction (U2OS [2]; [11]): -4.369%; autophagy induction (U2OS [2]; [12]): -2.6496%; autophagy induction (U2OS [2]; [13]): -0.7195%; autophagy induction (U2OS [2]; [14]): 1.979%"
CC(C)C[C@H](NC(=O)N1CCCCCC1)C(=O)N[C@H](Cc1cn(C)c2ccccc12)C(=O)N[C@H](Cc1ccccn1)C(=O)O,0.2891%,0.184%,-1.273%,0.7204%,2.596%,1.655%,-0.3512%,-0.2043%,5.448%,0.3648%,-0.3169%,1.561%,4.132%,4.485%,3.039%,-0.6751%,3.762%,6.744%,4.273%,0.0386%,autophagy induction (TERT-RPE1; [3]): -9.746%; autophagy induction (TERT-RPE1; [4]): -10.9738%; autophagy induction (TERT-RPE1; [5]): -11.345%; autophagy induction (TERT-RPE1; [6]): -17.0217%; autophagy induction (TERT-RPE1; [7]): -8.2266%; autophagy induction (TERT-RPE1; [8]): -8.649%; autophagy induction (TERT-RPE1; [9]): -10.3216%; autophagy induction (TERT-RPE1; [10]): -11.9295%; autophagy induction (TERT-RPE1; [11]): -4.458%; autophagy induction (TERT-RPE1; [12]): -5.829%; autophagy induction (TERT-RPE1; [13]): -9.562%; autophagy induction (TERT-RPE1; [14]): -13.6367%; autophagy induction (U2OS [2]; [11]): 4.084%; autophagy induction (U2OS [2]; [12]): 1.596%; autophagy induction (U2OS [2]; [13]): 3.219%; autophagy induction (U2OS [2]; [14]): 5.8133%
